Results reported in US12102685B2, “Immodulator peptides covalently modified with small molecules” (priority 2020, dated 2024).
Peptide text beside a SMILES is read from it.

Legend:
[1] = Iron binding of separately labeled peptides (x2E e); settings: each peptide labeled separately; IM3 = 100; ferric iron
Protocol: (§1) Experiments were conducted by the procedure described above. Ferric iron-charged NTA-coated 96-well plates were used as described. 1 ug/well immodulator peptide complexed to Alexa-488-labeled streptavidin in PBS buffer was added (60 min at room temperature). The plate was washed and counted in a standard fluorometer (excitation/emission: 485/525 nm). The results (fluorescence) show improved iron-binding by the three peptides extended C-terminally by the AVD, (dA)VD, and FVS tripeptides. **p<0.01 vs IM3 control IM3: 200±29; IM4: 45±37**; IM5: 130±77; IM3AVD: 434±29**; IM3dAVD: 418±28**; IM3FVS: 371±33** • (c) Competition assay. The same procedure was used as the preceding experiment, except that 375 ng/well labeled IM3 peptide was used, plus 10× of the indicated unlabeled peptide. ‘No competing peptide’ control value was set to 100. *p<0.05 vs “no peptide” control Competing Peptide/Fluorescence • None: 100±38; IM4: 125±26; IM3: 63±27*; IM5: 40±14*; IM3AVD: 10±28* • (d) Competition assay. The same procedure was used as the preceding experiment, except that labeled IM3AVD peptide was used. **p<0.01 vs “no competing peptide” control • None: 100±9; IM4: 144±44; IM3: 35±16**; IM5: 30±19**; IM3AVD: 9±19** • (e) The same procedure was used as the preceding experiment, except that each peptide was labeled with Alexa-488-labeled streptavidin in PBS buffer and used separately. Binding to IM3 was set to =100. *p<0.05, **p<0.01 vs IM3 control. (Labeled Peptide/Fluorescence) IM1: 1.8±0.4**; IM2: 3.0±1.8**; IM3: 100.0±16.8; IM4: 7.2±1.7*; IM5: 86.7±6.4; IM6: 85.9±14.9; IM3AVD:137.7±11.8*; IM3dAVD:147.4±22.9*; IM3FVS: 101.5±10.5.

[2] = biological target: T1, AA111-228 DNA-binding domain of RXR-alpha (RXRa-DBD) (Homo sapiens, UniProt P19793); assay: Binding to RXRa-DBD (x3A); settings: 1 ug/well RXRa-DBD, 800 ng/well SA488-labelled peptide; background subtracted
T1 construct: purchased Abcam, Cambridge, MA
T1 sequence (P19793 111-228): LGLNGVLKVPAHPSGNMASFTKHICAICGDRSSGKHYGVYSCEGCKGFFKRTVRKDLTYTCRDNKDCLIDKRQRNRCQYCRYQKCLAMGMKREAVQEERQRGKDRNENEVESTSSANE
Protocol: Binding of immodulator peptides to AA111-228 DNA-binding domain of RXR-alpha (RXRa-DBD). 1 ug/well recombinant RXRa-DBD (Abcam, Cambridge, MA) was adsorbed to wells of a 96-well plate for 60 minutes at RT, then blocked with 200 uL 1% BSA in PBS buffer overnight. Plate was washed and 800 ng/well Streptavidin-Alexa 488 conjugate (SA488)-labelled IM peptide was added. The plate was incubated for 60 min at room temperature, washed and counted in a standard fluorometer (excitation/emission 485/525 nm). Background (buffer alone) was subtracted.

[3] = FITC-PI(4)P1 binding to plate-bound peptide with calcium (x9A)
Protocol: Immodulator peptides IM1, IM3 and IM5 (400 ng/well) in PBS were bound to streptavidin-coated 96-well plates at room temperature for 60 minutes, in the presence or absence of 500 uM calcium chloride. Each well also received 200 ng cold PPI plus 10 ng FITC-labeled PI(4,5)P2 or PI(4)P1. The tables below show the relative fluorescence (with/without calcium background) expressed as a percentage of the highest binder, FITC-PI(4,5)P2+cold PI(3,5)P2, which was 2,496 fluorescence units. Background binding without calcium was, in all cases, 200-300 fluorescence units.

[4] = Binding to Echelon PPI Arrays (x9B); set-up: key: 0=no binding; 1=low binding; 2=medium binding; 3=high binding; settings: 100 pmol PPI spot, colorimetric readout
Excerpt: Binding of immodulator peptides to Echelon PPI Arrays. PPI arrays were purchased from Echelon Biosciences (Sal Lake City, UT) and used according to the manufacturer's recommendations. Colorimetric readout from each 100 pmol PPI spot in the array is expressed as 0=no binding, 1=low binding, 2=medium binding and 3=high binding. […] In addition, IM3 and IM5 show slight binding to PI(3,4,5)P3.

[5] = test system: A375 cells; assay: A375 cell viability, CellTiterGlo (x10A); assay type: cell-based; settings: peptide 2 uM, Buffer, 72 hours
Protocol: Immune modulation functions of immodulator peptides have great potential untility in the field of cancer. A375 cell line was obtained from American Type Culture Collection (ATCC). They were grown in a T-75 flask in DMEM Medium containing 10% fetal bovine serum and penicillin-streptomycin at 37° C. in a humidified, 5% CO2 incubator. Cells ([…], 2,000 cells/well) were plated in a 96-well plate and incubated overnight at 37° C. in a humidified, 5% CO2 incubator. Next day, […] of compounds were added (quadruplicate wells). After 72 hour incubation with the compound, cell viability was measured in a luminometer after the addition of […] CellTiterGlo reagent (Promega Inc, Madison, WI) as recommended by the manufacturer.
Experiment x10A. Anti-cancer activity of immodulator peptides on A375 cells. A 96-well plate was seeded with 2,000 A375 cells per well in DMEM medium containing 10% FBS and PenStrep. After 24 hrs at 37 deg C., compounds and peptides were added (each treatment done in quadruplicate). After a further 72 hours incubation, 100 uL/well of CTG assay reagent purchased from Promega Inc. (Madison, WI) was added. Plate was read after 10 minutes, as recommended by the manufacturer. Peptides were added at 2 uM. The results of this experiment are shown below, expressed as percent survival ofA375 cells.

[6] = Strength of binding to iron, plate assay (x2E b); settings: 1 ug/well peptide complexed to Alexa-488-streptavidin; ferric iron
Protocol: Immodulator peptides were extended C-terminally by three amino acids, to include a valine residue that is highly conserved in the “thyroglobulin type 1 motif”. The reasoning behind this attempt is that a longer conserved sequence might lead to a tighter fold overall, which might in turn result in increased metal-binding avidity. • (b) Strength of binding to iron was evaluated by plate assay.
as §1

[7] = Iron-binding competition assay with labeled IM3 (x2E c); settings: 375 ng/well labeled IM3 plus 10x unlabeled peptide; no competing peptide = 100
Protocol: as §1

| SMILES | fluorescence of labeled peptide [1] | fluorescence [2] | relative fluorescence, FITC-PI(4)P1 bound ([3]; cold PPI: 3,4,5-P3) | relative fluorescence, FITC-PI(4)P1 bound ([3]; cold PPI: 3,4-P2) | relative fluorescence, FITC-PI(4)P1 bound ([3]; cold PPI: 3,5-P2) | relative fluorescence, FITC-PI(4)P1 bound ([3]; cold PPI: 3-P1) | relative fluorescence, FITC-PI(4)P1 bound ([3]; cold PPI: 4,5-P2) | relative fluorescence, FITC-PI(4)P1 bound ([3]; cold PPI: 4-P1) | relative fluorescence, FITC-PI(4)P1 bound ([3]; cold PPI: 5-P1) | relative fluorescence, FITC-PI(4)P1 bound ([3]; cold PPI: None) | binding to PI spot [4] | binding to PI(3,4,5)P3 spot [4] | binding to PI(4)P1 spot [4] | binding to PI(4,5)P2 spot [4] | percent survival of A375 cells [5] [%] | fluorescence (iron binding) [6] | fluorescence of labeled IM3 with competing peptide [7] |
| --- | --- | --- | --- | --- | --- | --- | --- | --- | --- | --- | --- | --- | --- | --- | --- | --- | --- |
| CSCC[C@H](NC(=O)[C@H](CO)NC(=O)[C@@H](NC(=O)[C@H](CCC(=O)O)NC(=O)[C@H](CS)NC(=O)[C@H](CCC(N)=O)NC(=O)[C@H](CCCNC(=N)N)NC(=O)[C@H](CO)NC(=O)[C@H](Cc1c[nH]cn1)NC(=O)[C@H](Cc1ccc(O)cc1)NC(=O)[C@H](Cc1ccccc1)NC(=O)CNC(=O)[C@H](CC(N)=O)NC(=O)[C@@H](N)CCCCN)[C@@H](C)O)C(=O)N[C@@H](CC(=O)O)C(=O)NCC(=O)N[C@@H](CCC(=O)O)C(=O)N[C@@H](C)C(=O)NCC(=O)N[C@@H](CC(C)C)C(=O)N[C@@H](CS)C(=O)N[C@@H](Cc1c[nH]c2ccccc12)C(=O)O [IM1] (H-KNGFYHSRQCETSMDGEAGLCW-OH; N-terminus and C-terminus assumed) | 1.8±0.4 | 670±85 | 0.1 percentage of the highest binder | 2.6 percentage of the highest binder | 4.3 percentage of the highest binder | 3.1 percentage of the highest binder | 0.8 percentage of the highest binder | 2.7 percentage of the highest binder | 0.5 percentage of the highest binder | 1.6 percentage of the highest binder | 0 | 0 | 0 | 0 | 102.1 |  |  |
| CC[C@H](C)[C@H](NC(=O)CNC(=O)[C@H](CCCNC(=N)N)NC(=O)[C@H](CCCCN)NC(=O)[C@H](CCCNC(=N)N)NC(=O)CNC(=O)[C@H](CCCNC(=N)N)NC(=O)[C@H](CO)NC(=O)[C@@H]1CCCN1C(=O)[C@H](CCCCN)NC(=O)[C@H](CS)NC(=O)[C@H](CCC(N)=O)NC(=O)[C@H](CCCCN)NC(=O)[C@H](CCCNC(=N)N)NC(=O)[C@H](CCCCN)NC(=O)[C@H](Cc1ccc(O)cc1)NC(=O)[C@H](Cc1ccccc1)NC(=O)CNC(=O)[C@H](CCCCN)NC(=O)[C@@H](N)CCCNC(=N)N)C(=O)N[C@@H](CS)C(=O)N[C@@H](Cc1c[nH]c2ccccc12)C(=O)O [IM5] (H-RKGFYKRKQCKPSRGRKRGICW-OH; N-terminus and C-terminus assumed) | 86.7±6.4 | 6,802±336 | 1.2 percentage of the highest binder | 1.7 percentage of the highest binder | 1.3 percentage of the highest binder | 0.9 percentage of the highest binder | 1.8 percentage of the highest binder | 0.8 percentage of the highest binder | 0.4 percentage of the highest binder | 2.1 percentage of the highest binder | 0 | 1 | 2 | 3 |  | 130±77 | 40±14 |
| CC(C)C[C@H](NC(=O)[C@H](C)NC(=O)[C@@H]1CCCN1C(=O)[C@H](Cc1c[nH]cn1)NC(=O)[C@H](CS)NC(=O)[C@H](CCC(N)=O)NC(=O)[C@H](CCCCN)NC(=O)[C@@H]1CCCN1C(=O)[C@H](Cc1c[nH]cn1)NC(=O)[C@H](Cc1ccccc1)NC(=O)[C@H](CC(N)=O)NC(=O)CNC(=O)[C@H](CC(N)=O)NC(=O)[C@@H](N)CCCNC(=N)N)C(=O)N[C@@H](CC(=O)O)C(=O)NCC(=O)N[C@@H](CCC(N)=O)C(=O)N[C@@H](CCCNC(=N)N)C(=O)NCC(=O)N[C@@H](CCCCN)C(=O)N[C@@H](CS)C(=O)N[C@@H](Cc1c[nH]c2ccccc12)C(=O)O [IM4] (H-RNGNFHPKQCHPALDGQRGKCW-OH; N-terminus and C-terminus assumed) | 7.2±1.7 | 27±31 |  |  |  |  |  |  |  |  | 0 | 0 | 0 | 0 | 98.8 | 45±37 | 125±26 |
| CSCC[C@H](NC(=O)[C@H](CCCCN)NC(=O)[C@H](CS)NC(=O)[C@H](CCC(N)=O)NC(=O)[C@H](CCCCN)NC(=O)[C@H](CC(C)C)NC(=O)[C@H](CC(N)=O)NC(=O)[C@H](Cc1ccc(O)cc1)NC(=O)[C@H](CC(C)C)NC(=O)CNC(=O)[C@H](Cc1c[nH]cn1)NC(=O)[C@@H](N)CCCCN)C(=O)N[C@@H](CO)C(=O)N[C@@H](CC(C)C)C(=O)N[C@@H](CC(N)=O)C(=O)NCC(=O)N[C@@H](CCC(N)=O)C(=O)N[C@@H](CCCNC(=N)N)C(=O)NCC(=O)N[C@@H](CCC(=O)O)C(=O)N[C@@H](CS)C(=O)N[C@@H](Cc1c[nH]c2ccccc12)C(=O)O [IM2] | 3.0±1.8 | 2±38 |  |  |  |  |  |  |  |  | 0 | 0 | 0 | 0 | 99.0 |  |  |
